Biological target: T1, WT LRRK2 (Homo sapiens, UniProt Q5S007)
T1 construct: endogenous in cells; host or cells: HEK293 (endogenous LRRK2 gene knock-in tagged with HiBit; stably expressing CMV-driven firefly luciferase)
Assay: LRRK2 HiBit degradation assay (Nano-Glo Dual Luciferase) in HEK293 cells with HiBit-tagged endogenous LRRK2
Assay type: cell-based
Details: for Dmax: maximal degradation
Summary of the method: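 HEK293 cells carrying endogenous C-terminally HiBit-tagged LRRK2 and stably expressing CMV-driven firefly luciferase were treated for 24 h at 37° C with an 11-point 1:3 series from a 1 μM final top concentration. Nano-Glo Dual Luciferase read LRRK2-HiBit against firefly signal. Alamar Blue gave viability, and signals were normalized to DMSO median before curve fitting.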

[1] = HEK293, Table 2, HiBit-tagged LRRK2 in HEK293 cells, 24 hours treatment
[2] = Table 2, HiBit-tagged LRRK2 in HEK293 cells, 24 hours treatment, starting concentration 1 μM
[3] = HEK293, Table 3, comparison with direct comparators
[4] = Table 3, comparison with direct comparators, HiBit-tagged LRRK2 in HEK293 cells, 24 hours treatment
[5] = Table 2, HiBit-tagged LRRK2 in HEK293 cells, 24 hours treatment

T1 sequence (Q5S007 whole entry): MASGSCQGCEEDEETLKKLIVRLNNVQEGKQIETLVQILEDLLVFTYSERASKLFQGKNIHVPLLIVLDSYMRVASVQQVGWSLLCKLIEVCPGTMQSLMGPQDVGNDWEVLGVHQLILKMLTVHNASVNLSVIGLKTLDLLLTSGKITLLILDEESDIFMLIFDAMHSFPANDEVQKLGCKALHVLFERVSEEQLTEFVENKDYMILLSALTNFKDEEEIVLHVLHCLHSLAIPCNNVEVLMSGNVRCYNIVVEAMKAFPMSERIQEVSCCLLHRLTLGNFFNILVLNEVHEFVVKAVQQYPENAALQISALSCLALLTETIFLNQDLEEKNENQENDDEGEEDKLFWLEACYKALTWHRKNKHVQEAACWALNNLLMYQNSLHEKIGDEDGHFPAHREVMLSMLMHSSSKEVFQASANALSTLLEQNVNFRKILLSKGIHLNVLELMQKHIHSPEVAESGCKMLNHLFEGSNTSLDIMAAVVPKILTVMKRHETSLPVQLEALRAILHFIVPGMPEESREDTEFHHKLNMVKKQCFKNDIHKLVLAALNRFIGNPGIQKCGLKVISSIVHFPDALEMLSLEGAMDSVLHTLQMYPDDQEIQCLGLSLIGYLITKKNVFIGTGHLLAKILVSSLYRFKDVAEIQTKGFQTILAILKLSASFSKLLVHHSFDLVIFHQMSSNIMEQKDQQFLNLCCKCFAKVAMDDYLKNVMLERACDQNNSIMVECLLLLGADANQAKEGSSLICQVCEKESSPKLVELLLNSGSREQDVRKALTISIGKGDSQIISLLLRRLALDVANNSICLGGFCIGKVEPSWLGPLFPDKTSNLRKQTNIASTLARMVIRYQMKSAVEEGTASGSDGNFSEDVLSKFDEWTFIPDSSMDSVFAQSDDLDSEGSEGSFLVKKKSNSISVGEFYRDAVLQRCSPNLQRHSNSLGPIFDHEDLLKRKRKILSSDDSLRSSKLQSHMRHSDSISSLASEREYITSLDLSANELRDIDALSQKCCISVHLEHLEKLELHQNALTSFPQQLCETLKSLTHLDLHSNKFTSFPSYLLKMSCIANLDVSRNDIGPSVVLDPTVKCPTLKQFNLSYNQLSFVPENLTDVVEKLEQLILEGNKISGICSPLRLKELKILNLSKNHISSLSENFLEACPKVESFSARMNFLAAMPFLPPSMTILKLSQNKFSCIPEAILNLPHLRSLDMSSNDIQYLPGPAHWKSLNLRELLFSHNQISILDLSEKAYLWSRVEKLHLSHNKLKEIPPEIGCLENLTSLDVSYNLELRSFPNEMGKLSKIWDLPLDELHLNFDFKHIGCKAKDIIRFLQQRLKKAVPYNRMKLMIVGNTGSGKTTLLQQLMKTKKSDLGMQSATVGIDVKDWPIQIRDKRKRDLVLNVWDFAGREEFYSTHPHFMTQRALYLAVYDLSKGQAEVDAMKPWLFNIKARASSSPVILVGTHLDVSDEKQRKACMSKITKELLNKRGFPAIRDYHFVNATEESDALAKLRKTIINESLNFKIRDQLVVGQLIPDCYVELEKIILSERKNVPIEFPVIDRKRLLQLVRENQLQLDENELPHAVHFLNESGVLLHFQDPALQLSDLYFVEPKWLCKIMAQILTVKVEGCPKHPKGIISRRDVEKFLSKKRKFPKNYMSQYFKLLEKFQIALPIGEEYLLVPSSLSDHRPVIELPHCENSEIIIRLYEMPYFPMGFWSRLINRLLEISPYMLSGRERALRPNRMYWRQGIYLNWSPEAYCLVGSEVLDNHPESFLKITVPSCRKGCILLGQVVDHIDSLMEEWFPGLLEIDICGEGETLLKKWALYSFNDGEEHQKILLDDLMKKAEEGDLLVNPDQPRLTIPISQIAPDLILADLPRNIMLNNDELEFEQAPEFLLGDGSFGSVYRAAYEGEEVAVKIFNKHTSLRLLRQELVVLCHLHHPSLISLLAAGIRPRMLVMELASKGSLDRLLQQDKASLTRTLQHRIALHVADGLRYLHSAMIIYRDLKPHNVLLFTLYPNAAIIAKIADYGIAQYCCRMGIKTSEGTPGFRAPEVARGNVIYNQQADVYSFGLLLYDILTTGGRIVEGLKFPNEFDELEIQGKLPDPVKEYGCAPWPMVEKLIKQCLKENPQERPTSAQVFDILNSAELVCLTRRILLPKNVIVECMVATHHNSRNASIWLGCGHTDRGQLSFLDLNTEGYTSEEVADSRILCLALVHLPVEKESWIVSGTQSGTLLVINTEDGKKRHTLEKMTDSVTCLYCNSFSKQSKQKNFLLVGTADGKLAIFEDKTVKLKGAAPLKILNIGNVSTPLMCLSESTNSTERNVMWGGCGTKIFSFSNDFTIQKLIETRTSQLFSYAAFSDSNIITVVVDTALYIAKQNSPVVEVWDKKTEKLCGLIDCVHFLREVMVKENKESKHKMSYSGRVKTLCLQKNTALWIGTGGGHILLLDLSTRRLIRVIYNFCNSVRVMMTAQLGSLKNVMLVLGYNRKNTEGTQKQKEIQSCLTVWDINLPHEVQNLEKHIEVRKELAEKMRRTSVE

Row | SMILES | Dmax [1] | DC50 [2] | Dmax [3] | DC50 [4] | increase in WT LRRK2 DC50 activity when compared to Comparator Example (versus comparator bearing a 3-(4-methoxy-1-oxoisoindolin-2-yl)piperidine-2,6-dione group) | Dmax [5]
1 | CC(C)Oc1cc2c(-c3cc(N4CCN(C[C@H]5CC[C@H](OC6CCN(c7ccc8c(c7)n(C)c(=O)n8C7CCC(=O)NC7=O)CC6)CC5)CC4)ncn3)n[nH]c2cn1 (single isomer, unassigned) [Compound 20, rel-3-[3-methyl-2-oxo-5-(4-{[(1r,4r)-4-[(4-{6-[5-(propan-2-yloxy)-1H-pyrazolo[3,4-c]pyridin-3-yl]pyrimidin-4-yl}piperazin-1-yl)methyl]cyclohexyl]oxy}piperidin-1-yl)-2,3-dihydro-1H-1,3-benzodiazol-1-yl]piperidine-2,6-dione] | 40% | 0.56 nM | – | – | – | –
2 | CC1(Oc2ccc3[nH]nc(-c4cc(N5CCC(CN6CCN(CC7CCN(c8ccc9ncn(C%10CCC(=O)NC%10=O)c9c8)CC7)CC6(C)C)CC5)ncn4)c3c2)CC1 (stereo not drawn) [Compound 10, 3-{6-[4-({3,3-dimethyl-4-[(1-{6-[5-(1-methylcyclopropoxy)-1H-indazol-3-yl]pyrimidin-4-yl}piperidin-4-yl)methyl]piperazin-1-yl}methyl)piperidin-1-yl]-1H-1,3-benzodiazol-1-yl}piperidine-2,6-dione] | 69% | 4.5 nM | – | – | – | –
3 | Cn1c(=O)n(C2CCC(=O)NC2=O)c2ccc(N3CCC(O[C@H]4CC[C@H](CN5CCN(c6cc(-c7n[nH]c8cnc(OC9(C)CC9)cc78)ncn6)CC5)CC4)CC3)cc21 (stereo partly drawn) [Compound 1, 3-[3-methyl-2-oxo-5-(4-{[(1r,4r)-4-[(4-{6-[5-(1-methylcyclopropoxy)-1H-pyrazolo[3,4-c]pyridin-3-yl]pyrimidin-4-yl}piperazin-1-yl)methyl]cyclohexyl]oxy}piperidin-1-yl)-2,3-dihydro-1H-1,3-benzodiazol-1-yl]piperidine-2,6-dione] | 53% | 0.14 nM | 53% | 0.14 nM | > 40 fold | –
4 | Cn1c(=O)n(C2CCC(=O)NC2=O)c2ccc(N3CCC(O[C@H]4C[C@H](OC5CCN(c6cc(-c7n[nH]c8cnc(OC9(C)CC9)cc78)ncn6)CC5)C4)CC3)cc21 (single isomer, unassigned) [Compound 30, rel-3-(3-methyl-2-oxo-5-{4-[(1r,3r)-3-[(1-{6-[5-(1-methylcyclopropoxy)-1H-pyrazolo[3,4-c]pyridin-3-yl]pyrimidin-4-yl}piperidin-4-yl)oxy]cyclobutoxy]piperidin-1-yl}-2,3-dihydro-1H-1,3-benzodiazol-1-yl)piperidine-2,6-dione] | – | 0.065 nM | – | – | – | 48%
5 | Cn1c(=O)n(C2CCC(=O)NC2=O)c2ccc(N3CCC(O[C@H]4CC[C@H](CN5CCN(c6cc(-c7n[nH]c8ccc(C9(C#N)CC%10(CC%10)C9)cc78)ncn6)CC5)CC4)CC3)cc21 (single isomer, unassigned) [Compound 64, rel-5-{3-[6-(4-{[(1r,4r)-4-({1-[1-(2,6-dioxopiperidin-3-yl)-3-methyl-2-oxo-2,3-dihydro-1H-1,3-benzodiazol-5-yl]piperidin-4-yl}oxy)cyclohexyl]methyl}piperazin-1-yl)pyrimidin-4-yl]-1H-indazol-5-yl}spiro[2.3]hexane-5-carbonitrile] | 63% | 0.16 nM | – | – | – | –
6 | CC(C)n1c(=O)n(C2CCC(=O)NC2=O)c2ccc(N3CCC(O[C@H]4CC[C@H](CN5CCN(c6cc(-c7n[nH]c8ccc(OC(C)(C)C)cc78)ncn6)CC5)CC4)CC3)cc21 (single isomer, unassigned) [Compound 56, rel-3-[2-oxo-3-(propan-2-yl)-5-(4-{[(1r,4r)-4-[(4-{6-[5-(tert-butoxy)-1H-indazol-3-yl]pyrimidin-4-yl}piperazin-1-yl)methyl]cyclohexyl]oxy}piperidin-1-yl)-2,3-dihydro-1H-1,3-benzodiazol-1-yl]piperidine-2,6-dione] | 43% | 0.95 nM | – | – | – | –
7 | Cn1c(=O)n(C2CCC(=O)NC2=O)c2ccc(N3CCN(C[C@H]4C[C@H](OC5CCN(c6cc(-c7n[nH]c8cnc(OC9(C)CC9)cc78)ncn6)CC5)C4)CC3)cc21 (single isomer, unassigned) [Compound 36, rel-3-[3-methyl-2-oxo-5-(4-{[(1r,3r)-3-[(1-{6-[5-(1-methylcyclopropoxy)-1H-pyrazolo[3,4-c]pyridin-3-yl]pyrimidin-4-yl}piperidin-4-yl)oxy]cyclobutyl]methyl}piperazin-1-yl)-2,3-dihydro-1H-1,3-benzodiazol-1-yl]piperidine-2,6-dione] | – | 0.079 nM | – | – | – | 60%
8 | CCOc1ccc2[nH]nc(-c3cc(N4CCN(C[C@H]5CC[C@H](OC6CCN(c7ccc8c(c7)n(C)c(=O)n8C7CCC(=O)NC7=O)CC6)CC5)CC4)ncn3)c2c1 (single isomer, unassigned) [Compound 61, rel-3-[3-methyl-2-oxo-5-(4-{[(1r,4r)-4-({4-[6-(5-ethoxy-1H-indazol-3-yl)pyrimidin-4-yl]piperazin-1-yl}methyl)cyclohexyl]oxy}piperidin-1-yl)-2,3-dihydro-1H-1,3-benzodiazol-1-yl]piperidine-2,6-dione] | 48% | 0.51 nM | – | – | – | –
9 | Cn1c(=O)n(C2CCC(=O)NC2=O)c2cc(Br)c(N3CCC(O[C@H]4CC[C@H](CN5CCN(c6cc(-c7n[nH]c8cnc(OC9(C)CC9)cc78)ncn6)CC5)CC4)CC3)cc21 (single isomer, unassigned) [Compound 67, rel-3-[6-bromo-3-methyl-2-oxo-5-(4-{[(1r,4r)-4-[(4-{6-[5-(1-methylcyclopropoxy)-1H-pyrazolo[3,4-c]pyridin-3-yl]pyrimidin-4-yl}piperazin-1-yl)methyl]cyclohexyl]oxy}piperidin-1-yl)-2,3-dihydro-1H-1,3-benzodiazol-1-yl]piperidine-2,6-dione] | 90% | 5.9 nM | – | – | – | –
10 | CC(C)n1c(=O)n(C2CCC(=O)NC2=O)c2ccc(N3CCC(CN4CCN(CC5CCN(c6cc(-c7n[nH]c8ccc(OC9(C)CC9)cc78)ncn6)CC5)C(C)(C)C4)CC3)cc21 (stereo not drawn) [Compound 2, 3-{5-[4-({3,3-dimethyl-4-[(1-{6-[5-(1-methylcyclopropoxy)-1H-indazol-3-yl]pyrimidin-4-yl}piperidin-4-yl)methyl]piperazin-1-yl}methyl)piperidin-1-yl]-2-oxo-3-(propan-2-yl)-2,3-dihydro-1H-1,3-benzodiazol-1-yl}piperidine-2,6-dione] | 55% | 0.18 nM | – | – | – | –
11 | Cn1c(=O)n(C2CCC(=O)NC2=O)c2cccc(N3CCC(O[C@H]4CC[C@H](CN5CCN(c6cc(-c7n[nH]c8ccc(OC9(C)CC9)cc78)ncn6)CC5)CC4)CC3)c21 (stereo partly drawn) [Compound 9, 3-[3-methyl-2-oxo-4-(4-{[(1r,4r)-4-[(4-{6-[5-(1-methylcyclopropoxy)-1H-indazol-3-yl]pyrimidin-4-yl}piperazin-1-yl)methyl]cyclohexyl]oxy}piperidin-1-yl)-2,3-dihydro-1H-1,3-benzodiazol-1-yl]piperidine-2,6-dione] | 66% | 1.2 nM | 66% | 1.2 nM | – | –
12 | Cn1c(=O)n(C2CCC(=O)NC2=O)c2ccc(N3CCC(OC[C@H]4C[C@H](OC5CCN(c6cc(-c7n[nH]c8ccc(OC9(C)CC9)cc78)ncn6)CC5)C4)CC3)cc21 (single isomer, unassigned) [Compound 33, rel-3-[3-methyl-2-oxo-5-(4-{[(1r,3r)-3-[(1-{6-[5-(1-methylcyclopropoxy)-1H-indazol-3-yl]pyrimidin-4-yl}piperidin-4-yl)oxy]cyclobutyl]methoxy}piperidin-1-yl)-2,3-dihydro-1H-1,3-benzodiazol-1-yl]piperidine-2,6-dione] | – | 0.14 nM | – | – | – | 62%
13 | CC1(Oc2ccc3[nH]nc(-c4cc(N5CCC(CN6CCN(CC7CCN(c8ccc9c(ncn9C9CCC(=O)NC9=O)c8F)CC7)CC6(C)C)CC5)ncn4)c3c2)CC1 (stereo not drawn) [Compound 41, 3-{5-[4-({3,3-dimethyl-4-[(1-{6-[5-(1-methylcyclopropoxy)-1H-indazol-3-yl]pyrimidin-4-yl}piperidin-4-yl)methyl]piperazin-1-yl}methyl)piperidin-1-yl]-4-fluoro-1H-1,3-benzodiazol-1-yl}piperidine-2,6-dione] | 49% | 3.7 nM | 49% | 3.7 nM | – | –
14 | CC1(Oc2ccc3[nH]nc(-c4cc(N5CCC(CN6CCN(CC7CCN(c8cccc9c8ncn9C8CCC(=O)NC8=O)CC7)CC6(C)C)CC5)ncn4)c3c2)CC1 (stereo not drawn) [Compound 69, 3-{4-[4-({3,3-dimethyl-4-[(1-{6-[5-(1-methylcyclopropoxy)-1H-indazol-3-yl]pyrimidin-4-yl}piperidin-4-yl)methyl]piperazin-1-yl}methyl)piperidin-1-yl]-1H-1,3-benzodiazol-1-yl}piperidine-2,6-dione] | 50% | 5 nM | 50% | 5 nM | – | –
15 | CC1(Oc2ccc3[nH]nc(-c4cc(N5CCC(CN6CCN(CC7CCN(c8ccc9ncn(C%10CCC(=O)NC%10=O)c9c8)CC7)CC6)CC5)ncn4)c3c2)CC1 (stereo not drawn) [Compound 7, 3-{6-[4-({4-[(1-{6-[5-(1-methylcyclopropoxy)-1H-indazol-3-yl]pyrimidin-4-yl}piperidin-4-yl)methyl]piperazin-1-yl}methyl)piperidin-1-yl]-1H-1,3-benzodiazol-1-yl}piperidine-2,6-dione] | 64% | 6.4 nM | – | – | – | –

Source: US12589156B2, “Benzimidazole and benzimidazolone based protac compounds for the targeted degradation of leucine rich repeat kinase 2 (LRRK2)” (Arvinas Operations, Inc., priority 2023, dated 2026)
